From patent publication US20240140991A1, “ANTIBIOTIC NATURAL PRODUCT ANALOGUES” (THE QUEEN'S UNIVERSITY OF BELFAST, priority 2021, published 2024)
In brackets after ≈: the same amount, converted by molar mass. Positions of bridges follow the written chain, without caps; N, C: chain ends. Non-standard residues stand in square brackets, D forms with d. Residues, ends and D or L forms follow the SMILES beside them. ξ: configuration not given here. *: point of attachment. Palmitoyl = CCCCCCCCCCCCCCCC(=O)*; Hexanoyl(4ξ-Me) = CCC(C)CCC(=O)*; Lauroyl = CCCCCCCCCCCC(=O)*; Decanoyl = CCCCCCCCCC(=O)*; dOrn = NCCC[C@@H](N)C(=O)O; Orn = NCCC[C@H](N)C(=O)O; Hexanoyl = CCCCCC(=O)*; Butyryl = CCCC(=O)*; OAll = C=CCO*

Legend:
[1] = tested on: Escherichia coli ATCC 25922; type: cell-based; settings: ATCC 25922
In short: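 Broth microdilution in MHB per CLSI; inoculum 2×10^5 CFU mL^−1 from log-phase TSB cultures at OD600 0.5. Plates incubated 16 hours at 37° C with shaking at 220 rpm. MIC is the lowest concentration preventing visible growth.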

[2] = tested on: K. pneumoniae ATCC 11228; type: cell-based, Klebsiella pneumoniae; settings: ATCC 11228
Description: (§1) Minimum inhibitory concentration (MIC) was determined by broth microdilution according to CLSI guidelines. Blood agar plates were inoculated with glycerol stocks of Escherichia coli ATCC 25922, E. coli ATCC 25922 MCR-1, E. coli MCR-1 (clinical isolate from Utrecht Medical Center, NL), E. coli EQAS MCR-2 (clinical isolate from Wageningen University and Research, NL), Kiebsielia pneumoniae ATCC 11228, K. pneumoniae ATCC 13883, K. pneumonia 2048 (clinical isolate from Vrije Universiteit Amsterdam Medical Center, NL), K. pneumonia JS-123 (clinical isolate from Utrecht Medical Center, NL), Acinetobacter baumannii ATCC 17961, A. baumannil ATCC 17978, A. baumannii 2018-006 (clinical isolate from Rijksinstituut voor Volksgezondheid en Milieu, NL), A. baumannii MDR (clinical isolate from Vrije Universiteit Amsterdam Medical Center, NL), Pseudomonas aeruginosa ATCC 27853, P. aeruginosa PAO1, P. aeruginosa NRZ-03961 (Reference strain from Das Nationale Referenzzentrum für gramnegative Krankenhauserreger, DE), P. aeruginosa M-120 (clinical isolate from Leiden University Medical Center, NL) and Staphylococcus aureus USA300 (clinical isolate from Texas Children's Hospitalm, USA). E. coli 25922 MCR1 was grown on LB agar supplemented with kanamycin. The inoculated agar plates were then incubated for 16 hours at 37° C. Individually grown colonies were subsequently used to inoculate 3 mL aliquots of TSB that were then incubated at 37° C. with shaking at 220 rpm. In parallel, the compounds to be assessed were serially diluted with Mueller-Hinton broth (MHB) in polypropylene 96-well plates (50 μL in each well). Once the OD600 of the bacterial suspensions reached 0.5, the bacteria were diluted with MHB (final concentration 2×10^5 CFU mL^−1) and added to the microplates containing the test compounds (50 μL to each well, final volume: 100 μL). The well-plates were sealed with an adhesive membrane and after 16 hours of incubation at 37° C. with shaking at 220 rpm the wells were visually inspected for bacterial growth. MIC values were defined as the lowest concentration of the compound that prevented visible growth of bacteria.

[3] = tested on: A. baumannii ATCC 17978; type: cell-based, Acinetobacter baumannii; settings: ATCC 17978
Description: as §1

[4] = tested on: P. aeruginosa PAO1; type: cell-based, Pseudomonas aeruginosa; settings: PAO1
Description: as §1

[5] = tested on: E. coli; type: cell-based
Description: as §1
MIC values were determined for the lipid analogues of brevicidine.
MIC values were determined for the position 9 analogues of linear brevicidine.

Minimum inhibitory concentration (MIC) [1]	Minimum inhibitory concentration (MIC) [2]	Minimum inhibitory concentration (MIC) [3]	Minimum inhibitory concentration (MIC) [4]	E. coli MIC [5]	Compound
1 to 2 µg/mL	1 µg/mL (≈ 0.618 µM)	1 µg/mL (≈ 0.618 µM)	1 to 2 µg/mL	–	CCCCCCCCCC(=O)N[C@H](CO)C(=O)N[C@H](Cc1ccc(O)cc1)C(=O)N[C@H](Cc1c[nH]c2ccccc12)C(=O)N[C@H](CCCN)C(=O)N[C@@H](CCCN)C(=O)NCC(=O)N[C@H](CCCN)C(=O)N[C@@H](Cc1c[nH]c2ccccc12)C(=O)N[C@@H]1C(=O)N[C@@H]([C@@H](C)CC)C(=O)N[C@@H](CC(N)=O)C(=O)NCC(=O)NCC(=O)O[C@@H]1C [Compound C10] (Decanoyl-[dS][dY][dW][dOrn][Orn]G[dOrn]WTINGG; ester 9-C)
64 µg/mL (≈ 37.6 µM)	32 µg/mL (≈ 18.8 µM)	4 to 8 µg/mL	64 µg/mL (≈ 37.6 µM)	–	CCCCCCCCCCCCCCCC(=O)N[C@H](CO)C(=O)N[C@H](Cc1ccc(O)cc1)C(=O)N[C@H](Cc1c[nH]c2ccccc12)C(=O)N[C@H](CCCN)C(=O)N[C@@H](CCCN)C(=O)NCC(=O)N[C@H](CCCN)C(=O)N[C@@H](Cc1c[nH]c2ccccc12)C(=O)N[C@@H]1C(=O)N[C@@H]([C@@H](C)CC)C(=O)N[C@@H](CC(N)=O)C(=O)NCC(=O)NCC(=O)O[C@@H]1C [Compound C16] (Palmitoyl-[dS][dY][dW][dOrn][Orn]G[dOrn]WTINGG; ester 9-C)
–	–	–	–	0.4 µg/mL	C=CCOC(=O)CC[C@H](NC(=O)[C@H](Cc1c[nH]c2ccccc12)NC(=O)[C@@H](CCCN)NC(=O)CNC(=O)[C@H](CCCN)NC(=O)[C@@H](CCCN)NC(=O)[C@@H](Cc1c[nH]c2ccccc12)NC(=O)[C@@H](Cc1ccc(O)cc1)NC(=O)[C@@H](CC(N)=O)NC(=O)CCC(C)CC)C(=O)N[C@H](C(=O)NCC(N)=O)[C@@H](C)CC (stereo partly drawn) [Und(9-AllGlu)-NH2] ({Hexanoyl(4ξ-Me)}-[dN][dY][dW][dOrn][Orn]G[dOrn]WE(OAll)IG-NH2)
8 µg/mL (≈ 5.21 µM)	8 µg/mL (≈ 5.21 µM)	4 µg/mL (≈ 2.61 µM)	8 µg/mL (≈ 5.21 µM)	–	CCCC(=O)N[C@H](CO)C(=O)N[C@H](Cc1ccc(O)cc1)C(=O)N[C@H](Cc1c[nH]c2ccccc12)C(=O)N[C@H](CCCN)C(=O)N[C@@H](CCCN)C(=O)NCC(=O)N[C@H](CCCN)C(=O)N[C@@H](Cc1c[nH]c2ccccc12)C(=O)N[C@@H]1C(=O)N[C@@H]([C@@H](C)CC)C(=O)N[C@@H](CC(N)=O)C(=O)NCC(=O)NCC(=O)O[C@@H]1C [Compound C4] (Butyryl-[dS][dY][dW][dOrn][Orn]G[dOrn]WTINGG; ester 9-C)
1 to 2 µg/mL	2 µg/mL (≈ 1.28 µM)	1 µg/mL (≈ 0.64 µM)	1 to 2 µg/mL	–	CCCCCC(=O)N[C@H](CO)C(=O)N[C@H](Cc1ccc(O)cc1)C(=O)N[C@H](Cc1c[nH]c2ccccc12)C(=O)N[C@H](CCCN)C(=O)N[C@@H](CCCN)C(=O)NCC(=O)N[C@H](CCCN)C(=O)N[C@@H](Cc1c[nH]c2ccccc12)C(=O)N[C@@H]1C(=O)N[C@@H]([C@@H](C)CC)C(=O)N[C@@H](CC(N)=O)C(=O)NCC(=O)NCC(=O)O[C@@H]1C [Compound C6] (Hexanoyl-[dS][dY][dW][dOrn][Orn]G[dOrn]WTINGG; ester 9-C)
–	–	–	–	12.5 µg/mL	CCC(C)CCC(=O)N[C@H](CC(N)=O)C(=O)N[C@H](Cc1ccc(O)cc1)C(=O)N[C@H](Cc1c[nH]c2ccccc12)C(=O)N[C@H](CCCN)C(=O)N[C@@H](CCCN)C(=O)NCC(=O)N[C@H](CCCN)C(=O)N[C@@H](Cc1c[nH]c2ccccc12)C(=O)N[C@@H](CC(=O)O)C(=O)N[C@H](C(=O)NCC(N)=O)[C@@H](C)CC (stereo partly drawn) [Und(9-Asp)-NH2] ({Hexanoyl(4ξ-Me)}-[dN][dY][dW][dOrn][Orn]G[dOrn]WDIG-NH2)
4 µg/mL (≈ 2.43 µM)	2 to 4 µg/mL	2 µg/mL (≈ 1.21 µM)	4 µg/mL (≈ 2.43 µM)	–	CCCCCCCCCCCC(=O)N[C@H](CO)C(=O)N[C@H](Cc1ccc(O)cc1)C(=O)N[C@H](Cc1c[nH]c2ccccc12)C(=O)N[C@H](CCCN)C(=O)N[C@@H](CCCN)C(=O)NCC(=O)N[C@H](CCCN)C(=O)N[C@@H](Cc1c[nH]c2ccccc12)C(=O)N[C@@H]1C(=O)N[C@@H]([C@@H](C)CC)C(=O)N[C@@H](CC(N)=O)C(=O)NCC(=O)NCC(=O)O[C@@H]1C [Compound C12] (Lauroyl-[dS][dY][dW][dOrn][Orn]G[dOrn]WTINGG; ester 9-C)
–	–	–	–	1.56 µg/mL	CCCCCCCCCC(=O)N[C@H](CC(N)=O)C(=O)N[C@H](Cc1ccc(O)cc1)C(=O)N[C@H](Cc1c[nH]c2ccccc12)C(=O)N[C@H](CCCN)C(=O)N[C@@H](CCCN)C(=O)NCC(=O)N[C@H](CCCN)C(=O)N[C@@H](Cc1c[nH]c2ccccc12)C(=O)N[C@@H]1C(=O)N[C@@H]([C@@H](C)CC)C(=O)NCC(=O)N[C@@H](CO)C(=O)O[C@@H]1C [Brev-C10] (Decanoyl-[dN][dY][dW][dOrn][Orn]G[dOrn]WTIGS; ester 9-C)
–	–	–	–	>100 µg/mL	CCCCCCCCCCCCCCCC(=O)N[C@H](CC(N)=O)C(=O)N[C@H](Cc1ccc(O)cc1)C(=O)N[C@H](Cc1c[nH]c2ccccc12)C(=O)N[C@H](CCCN)C(=O)N[C@@H](CCCN)C(=O)NCC(=O)N[C@H](CCCN)C(=O)N[C@@H](Cc1c[nH]c2ccccc12)C(=O)N[C@@H]1C(=O)N[C@@H]([C@@H](C)CC)C(=O)NCC(=O)N[C@@H](CO)C(=O)O[C@@H]1C [Brev-C16] (Palmitoyl-[dN][dY][dW][dOrn][Orn]G[dOrn]WTIGS; ester 9-C)
–	–	–	–	<0.20 µg/mL	CCC(C)CCC(=O)N[C@H](CC(N)=O)C(=O)N[C@H](Cc1ccc(O)cc1)C(=O)N[C@H](Cc1c[nH]c2ccccc12)C(=O)N[C@H](CCCN)C(=O)N[C@@H](CCCN)C(=O)NCC(=O)N[C@H](CCCN)C(=O)N[C@@H](Cc1c[nH]c2ccccc12)C(=O)N[C@@H](Cc1ccccc1)C(=O)N[C@H](C(=O)NCC(N)=O)[C@@H](C)CC (stereo partly drawn) [Und(9-Phe)-NH2] ({Hexanoyl(4ξ-Me)}-[dN][dY][dW][dOrn][Orn]G[dOrn]WFIG-NH2)
–	–	–	–	0.78 µg/mL	CCC(C)CCC(=O)N[C@H](CC(N)=O)C(=O)N[C@H](Cc1ccc(O)cc1)C(=O)N[C@H](Cc1c[nH]c2ccccc12)C(=O)N[C@H](CCCN)C(=O)N[C@@H](CCCN)C(=O)NCC(=O)N[C@H](CCCN)C(=O)N[C@@H](Cc1c[nH]c2ccccc12)C(=O)N[C@@H](CC(C)C)C(=O)N[C@H](C(=O)NCC(N)=O)[C@@H](C)CC (stereo partly drawn) [Und(9-Leu)-NH2] ({Hexanoyl(4ξ-Me)}-[dN][dY][dW][dOrn][Orn]G[dOrn]WLIG-NH2)
–	–	–	–	0.78 µg/mL	CCC(C)CCC(=O)N[C@H](CC(N)=O)C(=O)N[C@H](Cc1ccc(O)cc1)C(=O)N[C@H](Cc1c[nH]c2ccccc12)C(=O)N[C@H](CCCN)C(=O)N[C@@H](CCCN)C(=O)NCC(=O)N[C@H](CCCN)C(=O)N[C@@H](Cc1c[nH]c2ccccc12)C(=O)N[C@@H](CCC(N)=O)C(=O)N[C@H](C(=O)NCC(N)=O)[C@@H](C)CC (stereo partly drawn) [Und(9-Gln)-NH2] ({Hexanoyl(4ξ-Me)}-[dN][dY][dW][dOrn][Orn]G[dOrn]WQIG-NH2)
